Measured values from US8399206B2, “Methods for diagnosis, prognosis and methods of treatment” (Nodality, Inc., priority 2008, dated 2013).
Where a SMILES comes first, the peptide text is derived from it. The star is where a group is joined. Cbz = O=C(OCc1ccccc1)*; CH2F = FC*

How the values were obtained:
Format in all cases: cell-based, human
AML blasts [1] = experiment: Functional apoptosis and DNA damage response assay, AML study No. 1 (c-PARP, cleaved caspases, p-Chk2)
Protocol: Multi-parameter flow cytometric analysis was performed on peripheral blasts taken at diagnosis from 9 AML patients who achieved a complete response (CR) and 24 patients who were non-responders (NR) to one cycle of standard 7+3 induction therapy (100-200 mg/m2 cytarabine and 60 mg/m2 daunorubicin). The signaling nodes were organized into 4 biological categories: 1) Protein expression of receptors and drug transporters 2) Response to cytokines and growth factors, 3) Phosphatase activity, and 4) Apoptotic signaling pathways.
A viable cell will be Aqua negative and PARP negative and a measure of cell death is PARP and/or Aqua positivity. “Apoptosis”=% of PARP^−Aqua^−unstim−% of PARP^−Aqua^−Drug.
Functional assays were performed as previously described. Cells were incubated with modulators (Table 18), at 37° C. for 3-15 minutes, fixed with 1.6% paraformaldehyde (final concentration) for 10 minutes at 37° C., pelleted and permeabilized with 100% ice-cold methanol and stored at −80° C.
The median fluorescence intensity (MFI) was computed for each node from the fluorescence intensity levels for the cells in the myeloid population. The MFI values were then used to compute a variety of metrics by comparing them to baseline or background values, including the unmodulated condition, cellular autofluorescence and antibody isotype controls. The following metrics were computed: • 1. Basal MFI (“Basal”)=log2(MFIUnmodulated Stained)−log2(MFIGated Unstained (Autofluoresence)), designed to measure the basal levels of a certain protein under unmodulated conditions. • 2. Fold Change MFI (“Fold”)=log2(MFIModulated Stained)−log2(MFIUnmodulated Stained), a measure of the change in the activation state of a protein under modulated conditions. • 3. Total Phospho MFI (“TotalPhospho”)=log2(MFIModulated Stained)−log2(MFIGated Unstained (Autofluorescence)), a measure of the total levels of a protein under modulated conditions. • 4. Relative Protein Expression (“Rel. Expression”)=log2(MFIstain)−log2(MFIControl), a measure of the levels of surface marker staining relative to control antibody staining. • 5. […] An additional metric was designed to measure the levels of cellular apoptosis in response to cytotoxic drugs: Quadrant (“Quad”)=a measure of the percentage of cells in a flow cytometry quadrant region defined by p-Chk2 and c-PARP i.e. the % of cells that are both p-Chk2- and c-PARP+.

AML blasts [2] = experiment: SCNP / phospho-flow modulated signaling assay, AML study No. 1 (PBMC at diagnosis, CR vs NR)
From the text: The present illustrative example represents how to analyze cells in one embodiment of the present invention. There are several steps in the process, such as the stimulation step, the staining step and the flow cytometry step. The stimulation step of the phospho-flow procedure can start with vials of frozen cells and end with cells fixed and permeabilized in methanol. Then the cells can be stained with an antibody directed to a particular protein of interest and then analyzed using a flow cytometer.
Frozen cells are thawed in a 37° C. water bath and gently resuspended in the vial and transferred to the 15 mL conical tube. The 15 mL tube is centrifuged at 930 RPM (200×g) for 8 minutes at room temperature. The supernatant is aspirated and the pellet is gently resuspended in 1 mL media A. The cell suspension is filtered through a 70 um cell strainer into a new 15 mL tube. The cell strainer is rinsed with 1 mL media A and another 12 ml of media A into the 15 mL tube. The cells are mixed into an even suspension. A 20 μL aliquot is immediately removed into a 96-well plate containing 180 μL PBS+4% FBS+CD45 Alexa 700+PI to determine cell count and viability post spin. After the determination, the 15 mL tubes are centrifuged at 930 RPM (200×g) for 8 minutes at room temperature. The supernatant is aspirated and the cell pellet is gently resuspended in 4 mL PBS+4 μL Amine Aqua and incubated for 15 min in a 37° C. incubator. 10 mL RPMI+1% FBS is added to the cell suspension and the tube is inverted to mix the cells. The 15 mL tubes are centrifuged at 930 RPM (200×g) for 8 minutes at room temperature. The cells are resuspended in Media A at the desired cell concentration (1.25×10^6/mL). For samples with low numbers of cells (<18.5×10^6), the cells are resuspended in up to 15 mL media. For samples with high numbers of cells (>18.5×10^6), the volume is raised to 10 mL with media A and the desired volume is transferred to a new 15 mL tube, and the cell concentration is adjusted to 1.25×10^6 cells/ml. 1.6 mL of the above cell suspension (concentration at 1.25×10^6 cells/ml) is transferred into wells of a multi-well plate. From this plate, 80 ul is dispensed into each well of a subsequent plate. The plates are covered with a lid (Nunc) and placed in a 37° C. incubator for 2 hours to rest.
A concentration for each stimulant that is five folds more (5×) than the final concentration is prepared using Media A as diluent. 5× stimuli are arrayed into wells of a standard 96 well v-bottom plate that correspond to the wells on the plate with cells to be stimulated.
Adding the stimulant: The cell plate(s) are taken out of the incubator and placed in a 37° C. water bath next to the pipette apparatus. The cell plate is taken from the water bath and gently swirled to resuspend any settled cells. With pipettor, the stimulant is dispensed into the cell plate and vortexed at “7” for 5 seconds. The deep well plate is put back into the water bath.
Adding Fixative: 200 μl of the fixative solution (final concentration at 1.6%) is dispensed into wells and then mixed on the titer plate shaker on high for 5 seconds. The plate is covered with foil sealer and incubated in a 37° C. water bath for 10 minutes. The plate is spun for 6 minutes at 2000 rpm at room temperature. The cells are aspirated using a 96 well plate aspirator (VP Scientific). The plate is vortexed to resuspend cell pellets in the residual volume. The pellet is ensured to be dispersed before the Methanol step (see cell permeabilization) or clumping will occur.
Cell Permeabilization: Permeability agent, for example methanol, is added slowly and while the plate is vortexing. To do this, the cell plate is placed on titer plate shaker and made sure it is secure. The plate is set to shake using the highest setting. A pipetter is used to add 0.6 mls of 100% methanol to the plate wells. The plate(s) are put on ice until this step has been completed for all plates.

AML myeloblasts (BMMC) = experiment: SCNP of paired diagnosis and relapse AML BMMC and independent diagnostic set (Example 5); details: paired diagnosis samples of Patients 1 and 2
From the text: All AML bone marrow mononuclear cells (BMMC) were derived from the bone marrow (BM) of AML patients treated at MD Anderson Cancer Center (MDACC) between September 1999 and September 2006. Clinical data were de-identified in compliance with Health Insurance Portability and Accountability Act regulations. Patient/sample inclusion criteria required a diagnosis of French-American-British (FAB) classification of M0 through M7 AML (excluding M3) AML, collection prior to therapy initiation and at least 50% viability upon sample thaw. For the identification of chemoresistant signaling profiles, two longitudinally paired BMMC samples at diagnosis (collection prior to the initiation of induction chemotherapy) and first relapse, were examined. An independent test set comprised of 47 BMMC samples collected at diagnosis from AML patients with a disease response of CR after high dose cytarabine based chemotherapy was used to assess the ability of the identified signaling profiles to predict disease relapse. Healthy, unstimulated BMMC (n=2) were purchased from a commercial source (All Cells) to serve as a control. All samples underwent fractionation over Ficoll-Hypaque prior to cryopreservation with 90% fetal bovine serum and 10% dimethyl sulfoxide and storage in liquid nitrogen.
The SCNP assay measured response to growth factors and cytokines involved in hematopoietic progenitor or myeloid biology (SCF, FLT3L, G-CSF, IL-27), drug transporter (ABCG2, MRP-1) and chemokine receptors (CXCR4) associated with adverse disease prognosis in AML, and the c-Kit growth factor receptor for SCF. The SCF and FLT3L-mediated PI3K/Akt and MAPK pathway is important for maintaining the hematopoietic stem cell pool; G-CSF-mediated Jak/STAT pathway activation is important for neutrophilic differentiation of hematopoietic progenitor cells; interleukin (IL)-27 mediated Jak/STAT pathway activation is important in regulating proliferation and differentiation of hematopoietic stem cells; CXCR4 expression is associated with disease relapse and decreased survival; and drug transporter expression levels (i.e. ABCG2 and MRP-1) are known to be associated with adverse prognosis in AML. All together, approximately 20 signaling nodes were evaluated in each sample.
SCNP assays were performed as described previously. Cryopreserved samples were thawed at 37° C. and washed once in warm PBS containing 10% FBS (HyClone, Waltham, Mass., USA) and 2 mM EDTA. […] The cells were re-suspended in RPMI containing 1% FBS, aliquoted to 100,000 cells/condition and rested for 1-2 hours at 37° C. […]

[3] = Study No. 1 sensitivity analysis, CR samples
[4] = Study No. 1 sensitivity analysis, NR samples incl. CRp

For CN[C@@H]1C[C@H]2O[C@@](C)([C@@H]1OC)n1c3ccccc3c3c4c(c5c6ccccc6n2c5c31)C(=O)NC4 [Staurosporine], the “cell death as determined by cleaved PARP and cleaved Caspase 8” value (AML blasts [1]) was “failed to undergo cell death”, the “cleaved PARP and caspase 8” value (AML blasts [1]) was “significant populations of cells with cleaved PARP and caspase 8” and the “in vitro apoptotic response in the context of FLT3 mutations” value (AML blasts [1]) was “greatest apoptotic responses were those that expressed FLT3 ITD”. The “phosphorylated Chk2” value (AML blasts [1]) was “increase in phosphorylated Chk2”.

In the case of SCF: stem cell factor, the “Mean Value of CRs, p-Akt Fold” value (AML blasts [2]; [3]) is reported as 0.09, the “Mean Value of CRs, p-CREB Total Phospho” value (AML blasts [2]; [3]) is reported as 1.32 and the “Mean Value of CRs, p-Erk Fold” value (AML blasts [2]; [3]) is reported as −0.06. The “Mean Value of CRs, p-Plcγ2 Total Phospho” value (AML blasts [2]; [3]) was 1.80, the “Mean Value of NRs, p-Akt Fold” value (AML blasts [2]; [4]) was 0.56 and the “Mean Value of NRs, p-CREB Total Phospho” value (AML blasts [2]; [4]) was 1.92. The “Mean Value of NRs, p-Erk Fold” value (AML blasts [2]; [4]) was 0.11, the “Mean Value of NRs, p-Plcγ2 Total Phospho” value (AML blasts [2]; [4]) was 2.79 and the “responsive cells in diagnostic AML bone marrow samples” value (AML myeloblasts (BMMC)) was roughly 1%.

For COC(=O)CC(NC(=O)C(C)NC(=O)C(NC(=O)OCc1ccccc1)C(C)C)C(=O)CF (stereo not drawn) [Z-VAD, benzyloxycarbonyl-Val-Ala-Asp (OMe) fluoromethylketone] (Cbz-Val-Ala-Asp(OMe)-CH2F; configuration not given here), the “cleavage of caspase 3 and PARP on co-incubation with Z-VAD” value (AML blasts [1]; samples 0341, 0521) was “inhibited cleavage of caspase 3 and PARP to near completion” and the “PARP cleavage on co-incubation with Z-VAD” value (AML blasts [1]; samples 8303, 8402) was “only partially inhibited”.

B1: G-CSF: granulocyte colony-stimulating factor (protein, UniProt P09919 31-207, looked up)
Granulocyte …: TPLGPASSLPQSFLLKCLEQVRKIQGDGAALQEKLVSECATYKLCHPEELVLLGHSLGIPWAPLSSCPSQALQLAGCLSQLHSGLFLYQGLLQALEGISPELGPTLDTLQLDVADFATTIWQQMEELGMAPALQPTQGAMPAFASAFQRRAGGVLVASHLQSFLEVSYRVLRHLAQP
B1 was tested, and the “increase in p-Akt and p-S6 levels” value (AML blasts [2]; Staurosporine Resistant category vs other apoptosis categories) was “greatest increase in p-Akt and p-S6 levels”, the “Mean Value of CRs, p-Stat3 Fold” value (AML blasts [2]; [3]) was 0.60 and the “Mean Value of CRs, p-Stat3 Total Phospho” value (AML blasts [2]; [3]) was 1.40. For the same molecule, the “Mean Value of CRs, p-Stat5 Fold” value (AML blasts [2]; [3]) was 0.33, the “Mean Value of NRs, p-Stat3 Total Phospho” value (AML blasts [2]; [4]) was 2.74 and the “Mean Value of NRs, p-Stat5 Fold” value (AML blasts [2]; [4]) was 1.15. For the same molecule, the “Mean Value of NRs, p-Stat3 Fold” value (AML blasts [2]; Study No. 1 sensitivity analysis, NR samples incl. CRp, negative = down regulation) was 1.52, the “Jak/Stat response (G-CSF: p-Stat3, p-Stat5; GM-CSF: p-Stat5)” value (AML blasts [2]; all samples of the Staurosporine Resistant apoptosis category) was “Robust Jak/Stat responses” and the “responsive cells in diagnostic AML bone marrow samples” value (AML myeloblasts (BMMC)) was roughly 1%.
